Measurements reported in ChEMBL document CHEMBL5465560, “Selectivity Literature for EUbOPEN Chemogenomic Library” (2024).
One block for each compound: values may come before it.

Assays:
[1] = biological target: Tyrosine-protein kinase JAK1 (Homo sapiens, UniProt P23458); assay: Selectivity interaction (ActivX KiNativ screen (kinase selectivity in THP-1 cell lysates)) EUB0000639a JAK1; type: subcellular; conditions: lysate
[2] = biological target: Cyclin-dependent kinase 15 (Homo sapiens) (UniProt Q96Q40); assay: Selectivity interaction (KinomeScan (DiscoverX)) EUB0001049a CDK15; conditions: at 1 µM
[3] = biological target: T1, Ephrin type-B receptor 2 (Homo sapiens) (UniProt P29323); assay: Selectivity interaction (KinomeScan (DiscoverX)) EUB0000655a EPHB2; conditions: at 10 µM
T1 sequence (whole entry): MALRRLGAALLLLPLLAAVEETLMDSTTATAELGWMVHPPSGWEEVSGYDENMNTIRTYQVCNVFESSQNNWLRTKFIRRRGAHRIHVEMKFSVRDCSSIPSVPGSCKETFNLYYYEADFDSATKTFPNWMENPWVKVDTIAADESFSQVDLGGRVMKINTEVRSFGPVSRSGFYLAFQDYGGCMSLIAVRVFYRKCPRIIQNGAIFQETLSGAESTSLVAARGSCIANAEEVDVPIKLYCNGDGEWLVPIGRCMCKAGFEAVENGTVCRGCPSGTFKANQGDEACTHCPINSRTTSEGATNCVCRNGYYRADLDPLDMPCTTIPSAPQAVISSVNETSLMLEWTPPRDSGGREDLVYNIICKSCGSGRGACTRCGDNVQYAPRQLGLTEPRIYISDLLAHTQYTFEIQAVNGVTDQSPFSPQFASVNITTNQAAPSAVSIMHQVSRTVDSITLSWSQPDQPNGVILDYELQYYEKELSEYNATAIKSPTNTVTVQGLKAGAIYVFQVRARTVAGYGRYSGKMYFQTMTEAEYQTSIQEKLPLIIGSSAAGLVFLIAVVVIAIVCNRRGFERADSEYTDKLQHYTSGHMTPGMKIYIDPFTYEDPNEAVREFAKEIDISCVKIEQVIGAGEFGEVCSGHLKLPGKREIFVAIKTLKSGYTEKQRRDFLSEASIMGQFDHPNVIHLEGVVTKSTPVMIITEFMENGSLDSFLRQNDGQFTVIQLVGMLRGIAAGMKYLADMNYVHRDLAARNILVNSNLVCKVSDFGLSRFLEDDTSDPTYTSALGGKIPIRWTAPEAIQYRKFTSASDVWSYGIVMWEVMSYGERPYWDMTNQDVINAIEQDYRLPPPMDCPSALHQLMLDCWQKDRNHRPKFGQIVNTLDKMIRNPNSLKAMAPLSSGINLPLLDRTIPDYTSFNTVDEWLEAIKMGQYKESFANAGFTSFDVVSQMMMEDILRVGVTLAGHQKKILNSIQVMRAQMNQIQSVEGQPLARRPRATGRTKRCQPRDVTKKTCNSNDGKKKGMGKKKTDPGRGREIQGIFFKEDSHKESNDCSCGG

[4] = biological target: T2, Serine/threonine-protein kinase STK11 (Homo sapiens) (UniProt Q15831); assay: Selectivity interaction (KinomeScan (DiscoverX)) EUB0000045b STK11
T2 sequence (whole entry): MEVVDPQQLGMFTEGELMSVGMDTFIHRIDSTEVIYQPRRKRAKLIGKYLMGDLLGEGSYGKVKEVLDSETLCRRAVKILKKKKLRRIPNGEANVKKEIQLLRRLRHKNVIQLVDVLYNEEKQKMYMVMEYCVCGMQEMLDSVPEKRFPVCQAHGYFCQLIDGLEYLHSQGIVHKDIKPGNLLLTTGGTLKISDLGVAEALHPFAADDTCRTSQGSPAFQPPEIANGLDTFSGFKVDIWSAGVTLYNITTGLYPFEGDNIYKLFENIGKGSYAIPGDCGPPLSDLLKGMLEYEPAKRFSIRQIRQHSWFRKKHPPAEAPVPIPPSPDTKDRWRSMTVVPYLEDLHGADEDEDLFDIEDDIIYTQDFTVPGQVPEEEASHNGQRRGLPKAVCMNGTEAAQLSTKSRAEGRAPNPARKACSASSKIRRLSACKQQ

[5] = biological target: T3, Casein kinase I isoform alpha-like (Homo sapiens) (UniProt Q8N752); assay: Selectivity interaction (KinomeScan (DiscoverX)) EUB0000618a CSNK1A1L; conditions: at 10 µM
T3 sequence (whole entry): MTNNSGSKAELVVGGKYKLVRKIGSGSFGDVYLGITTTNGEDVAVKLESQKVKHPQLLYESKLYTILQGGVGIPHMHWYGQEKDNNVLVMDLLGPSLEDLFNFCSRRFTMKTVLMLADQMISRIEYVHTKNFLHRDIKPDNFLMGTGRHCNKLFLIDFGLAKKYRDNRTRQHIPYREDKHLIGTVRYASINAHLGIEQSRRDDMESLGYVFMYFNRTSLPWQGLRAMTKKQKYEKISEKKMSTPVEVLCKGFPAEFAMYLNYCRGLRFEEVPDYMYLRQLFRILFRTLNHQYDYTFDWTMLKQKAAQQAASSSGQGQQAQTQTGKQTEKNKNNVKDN

[6] = biological target: Tyrosine-protein kinase CSK (Homo sapiens) (UniProt P41240); assay: Selectivity interaction (ActivX KiNativ screen (ex vivo kinase selectivity in human PBMCs)) EUB0001619a CSK; type: cell-based; conditions: PBMC, at 1 µM
Chain of Tyrosine-protein kinase CSK (Homo sapiens) (P41240 2-450 limits assumed): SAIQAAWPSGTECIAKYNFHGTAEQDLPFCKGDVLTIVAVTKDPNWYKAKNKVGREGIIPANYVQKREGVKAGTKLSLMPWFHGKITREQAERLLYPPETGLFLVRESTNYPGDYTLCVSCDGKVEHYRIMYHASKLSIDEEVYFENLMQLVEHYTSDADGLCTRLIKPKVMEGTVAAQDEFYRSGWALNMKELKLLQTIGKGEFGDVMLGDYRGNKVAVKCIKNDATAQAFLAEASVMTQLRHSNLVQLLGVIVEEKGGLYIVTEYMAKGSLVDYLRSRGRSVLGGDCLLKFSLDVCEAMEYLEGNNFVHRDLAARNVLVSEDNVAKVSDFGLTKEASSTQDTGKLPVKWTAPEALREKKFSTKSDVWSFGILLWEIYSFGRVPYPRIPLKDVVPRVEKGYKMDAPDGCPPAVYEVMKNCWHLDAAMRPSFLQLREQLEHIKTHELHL

Chain of Tyrosine-protein kinase JAK1 (P23458 whole entry): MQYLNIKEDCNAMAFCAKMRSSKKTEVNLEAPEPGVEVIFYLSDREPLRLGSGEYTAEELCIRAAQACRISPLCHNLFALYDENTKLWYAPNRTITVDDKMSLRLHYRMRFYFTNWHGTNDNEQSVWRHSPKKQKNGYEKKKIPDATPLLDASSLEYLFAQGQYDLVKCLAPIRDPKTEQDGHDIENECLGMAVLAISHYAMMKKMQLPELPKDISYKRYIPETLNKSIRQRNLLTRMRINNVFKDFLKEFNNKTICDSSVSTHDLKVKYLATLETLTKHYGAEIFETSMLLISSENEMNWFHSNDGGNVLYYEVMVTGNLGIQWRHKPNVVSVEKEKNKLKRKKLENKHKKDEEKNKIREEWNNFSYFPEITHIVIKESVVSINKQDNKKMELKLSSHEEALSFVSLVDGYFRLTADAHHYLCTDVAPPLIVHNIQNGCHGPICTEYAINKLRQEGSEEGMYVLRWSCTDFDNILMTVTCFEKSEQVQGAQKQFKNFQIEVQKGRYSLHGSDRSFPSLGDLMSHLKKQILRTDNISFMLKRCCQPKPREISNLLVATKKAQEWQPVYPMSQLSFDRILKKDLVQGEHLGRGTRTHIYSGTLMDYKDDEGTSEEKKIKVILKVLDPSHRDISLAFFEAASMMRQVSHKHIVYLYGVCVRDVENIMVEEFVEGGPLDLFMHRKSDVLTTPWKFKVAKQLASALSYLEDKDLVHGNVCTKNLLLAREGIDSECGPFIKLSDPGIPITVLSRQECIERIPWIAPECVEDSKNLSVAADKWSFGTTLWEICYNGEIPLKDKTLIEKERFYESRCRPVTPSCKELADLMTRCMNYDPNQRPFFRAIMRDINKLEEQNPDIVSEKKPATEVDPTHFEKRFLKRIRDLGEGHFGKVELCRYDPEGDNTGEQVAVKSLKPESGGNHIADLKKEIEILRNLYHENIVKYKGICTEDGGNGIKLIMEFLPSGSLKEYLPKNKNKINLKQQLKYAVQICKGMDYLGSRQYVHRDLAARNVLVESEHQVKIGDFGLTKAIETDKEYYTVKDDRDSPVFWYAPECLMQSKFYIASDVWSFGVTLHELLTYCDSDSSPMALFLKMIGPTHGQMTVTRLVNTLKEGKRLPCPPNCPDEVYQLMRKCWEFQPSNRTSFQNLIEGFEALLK
Chain of Cyclin-dependent kinase 15 (Homo sapiens) (Q96Q40 whole entry): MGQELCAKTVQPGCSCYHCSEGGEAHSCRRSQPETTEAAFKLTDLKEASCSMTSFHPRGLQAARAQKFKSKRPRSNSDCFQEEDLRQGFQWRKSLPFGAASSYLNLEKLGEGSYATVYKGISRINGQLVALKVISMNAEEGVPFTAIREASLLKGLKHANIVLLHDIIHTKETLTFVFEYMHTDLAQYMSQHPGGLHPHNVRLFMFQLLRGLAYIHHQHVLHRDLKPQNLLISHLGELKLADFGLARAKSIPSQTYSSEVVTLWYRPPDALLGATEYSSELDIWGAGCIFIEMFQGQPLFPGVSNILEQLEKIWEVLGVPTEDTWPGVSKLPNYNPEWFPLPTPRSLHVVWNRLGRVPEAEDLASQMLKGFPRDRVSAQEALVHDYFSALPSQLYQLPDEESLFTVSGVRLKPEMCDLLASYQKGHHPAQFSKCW

% of inhibition ([1]; at 0.01 µM): 18% | % of inhibition ([1]; at 0.04 µM): 15.6% | % of inhibition ([1]; at 0.2 µM): 11.9% | % of inhibition ([1]; at 1 µM): 9% | % of inhibition ([1]; at 5 µM): -24.4%
Compound: CC[C@@H]1[C@H](F)C(=O)N[C@@H]1COc1nccc2cc(C(N)=O)c(OC)cc12 [ZIMLOVISERTIB]

Compound: COc1cc(Nc2nc(C)cc(-c3cnn4nc(OC)ccc34)n2)cc(C(F)(F)F)c1
% of control [2]: 90%

Compound: CN(C)CCOc1ccc(-c2nc(-c3ccncc3)c(-c3ccc4c(c3)CC/C4=N\O)[nH]2)cc1
% of control [3]: 98%

Compound: C=CC(=O)Nc1cc(-n2c(=O)ccc3cnc4ccc(-c5ccc(NS(C)(=O)=O)cc5)cc4c32)ccc1C
% of control ([4]; at 1 µM): 79% | % of control ([4]; at 10 µM): 100%

Compound: O[C@H]1CC[C@H](Nc2ncc3nc(Nc4c(F)cc(F)cc4F)n([C@H]4CCOC4)c3n2)CC1
% of control [5]: 55%

Compound: N#Cc1cccc(-c2c[nH]c3ncnc(N4CCOCC4)c23)c1
% of inhibition [6]: -2%
